No end group written: not given here.
How the values were obtained:
[1] = test system: rats given an intraperitoneal glucose load; assay: Plasma glucose in rats given an intraperitoneal glucose load, DP with and without insulin (Example 2); assay type: in vivo, Sprague-Dawley rats; conditions: for Plasma Glucose at 60 minutes: i.p. glucose load
Procedure: (§1) A study was conducted to determine the effect on plasma glucose of deletion peptide, with and without insulin, in rats given an intraperitoneal glucose load. Groups of five male Sprague-Dawley rats were involved in this study. All weighed between 160 to 168 grams and were maintained on standard laboratory diet until 18 hours prior to the test procedures. Test groups of fasted rats received, in rapid succession, 1.0 ml of 0.75 M glucose, 10 mU of insulin in admixture with 1% bovine serum albumin (BSA) in normal saline (pH 7.4), and either 0, 25, 50 or 100 μg doses of deletion peptide. Control groups of rats received glucose and 1% BSA in saline with no insulin but with similarly varying levels of deletion peptide. Plasma glucose determinations were made on blood drawn one hour after administration of test substances and the results (means, ± standard errors) of these determinations are set out in Table I below.

[2] = test system: dog, hyperglycemia induced by infusing glucose; assay: Portal infusion of deletion peptide in dog during induced hyperglycemia with fixed insulin levels (Example 5, second study); assay type: in vivo; conditions: basal insulin alone, glucose >200 mg/deciliter
Procedure: In the second study, deletion peptide was infused portally at a rate of 1 μg/kg/min during hyperglycemia induced by infusing glucose through a peripheral catheter (to maintain glucose levels in excess of 200 mg/deciliter). Basal glucagon levels were fixed and insulin levels were fixed either at basal or four-fold basal levels.

[3] = test system: rats given an intraperitoneal glucose load; assay: Plasma glucose in rats given an intraperitoneal glucose load, increasing insulin doses with and without 100 μg DP (Example 3); assay type: in vivo; conditions: for Plasma Glucose at 60 minutes: i.p. glucose load
Procedure: as §1
A study was conducted under the same general procedures as Example 2 to determine the effect of increasing doses of insulin, with and without 100 μg of deletion peptide, on rats given an intraperitoneal glucose load. The results of plasma glucose determinations on blood drawn after 60 minutes are set out below in Table II.

[4] = test system: Sprague-Dawley rats; assay: Plasma glucose after glucose load, fixed insulin and DP doses, rats (Example 4); assay type: in vivo; conditions: Rat (normal), insulin 0.001 mU/10g
Procedure: (§2) A study was conducted to ascertain the effects of fixed amounts of deletion peptide and insulin on various animal models, including rats and normal and genetically abnormal mice.
(§3) Animals in test groups of five each were employed in these procedures. Sprague-Dawley rats weighed approximately 200 grams; homozygous genetically abnormal mice (ob/ob and db/db) had weights in the range of 40 to 60 grams; and heterozygous normal mice (ob/+ and db/m) all weighed approximately 25 grams. Glucose was administered intraperitoneally at a dosage of 0.05 ml/10g of a solution containing 135 mg/ml glucose, except for one group of rats which were given an oral dose of glucose comprising 1 ml of 270 mg/ml glucose solution. Insulin was administered at a dose of 0.001 mU/10g and deletion peptide was simultaneously intraperitoneally administered at a dose of 5.0 μg/10g.
(§4) The results of plasma glucose determinations performed on blood drawn one hour after administration of test materials are set out in Table III, below.

[5] = test system: Rhesus monkeys; assay: Induced hyperglycemia in Rhesus monkeys, plasma glucose over two hours (Example 6); assay type: in vivo
Procedure: A study was conducted to determine the effects of deletion peptide on induced hyperglycemia in Rhesus monkeys. Blood samples were taken from normal female monkeys (in three experimental groups of three) five minutes before administration of an oral dose of 3.0 ml/kg of 0.5 g/ml glucose and intramuscular administration of either: (1) 0.5 ml/kg phosphate buffered saline (PBS), pH 7.4; (2) deletion peptide 0.1 ml/kg of 1.0 mg/ml solution in PBS; (3) deletion peptide as above combined with 0.5 ml/kg of 20 mU/ml insulin in PBS; or (4) insulin alone as above. Blood samples were then periodically withdrawn over two hours and analyzed for plasma glucose levels. Plasma glucose level data is set out in Table IV.

[6] = test system: mice ob/ob, ob/+, db/db, db/m; assay: Plasma glucose after glucose load, fixed insulin and DP doses, normal and genetically abnormal mice (Example 4); assay type: in vivo; conditions: for Plasma Glucose at 60 min: i.p. glucose, insulin 0.001 mU/10g
Procedure: as §2, §3, §4

[7] = cited from earlier work
[8] = after hGH administration; cited from earlier work
[9] = test system: GT-impaired strain of mice (YS/Wf Nctr); conditions: cited from earlier work
[10] = test system: normal rats; assay: In vivo glucose metabolism in normal rats
Text: (§5) The present invention has its origins, in part, in the results of an extensive series of controlled experiments designed to study the effects of deletion peptide: (a) on in vivo glucose metabolism in normal rats; (b) on in vivo insulin-stimulated glucose uptake by normal rat liver and skeletal muscle tissue; (c) on growth of hypophysectomized rats; and (d) on in vitro glucose utilization of adipocytes isolated from normal rats.

[11] = test system: normal dog; conditions: portal infusion 1 μg/kg/min
Procedure: Two studies were conducted to determine the effects of deletion peptide on dogs.

[12] = test system: insulin-stimulated fat cells of older obese rats; conditions: in vitro; cited from earlier work
[13] = test system: hypophysectomized rats; assay: Growth of hypophysectomized rats; assay type: in vivo
Text: as §5

[14] = test system: normal rat liver and skeletal muscle tissue; assay: In vivo insulin-stimulated glucose uptake by normal rat liver and skeletal muscle tissue; conditions: administration in combination with insulin
Text: as §5

[15] = Ongoing studies of deletion peptide biological activities in in vivo systems; conditions: preliminary evidence
Text: The above examples establish that deletion peptide alone has no immediate and direct hypoglyamic effect within the protocols of investigations conducted to date. […] Further, certain of these effects appear to be shared by peptides disclosed and claimed in co-owned, co-pending, concurrently-filed U.S. Patent application Ser. No. 501,024, by the inventor herein and co-inventor Theodore Jones, entitled "Biologically Active Peptides Structurally Related to Regions Within Growth Hormones," the disclosures of which are incorporated by reference herein.

[16] = test system: normal rats; conditions: cited from earlier work
[17] = test system: adipocytes isolated from normal rats; assay: In vitro glucose utilization of adipocytes isolated from normal rats; assay type: cell-based
Text: as §5

[18] = test system: fat cells; conditions: compared with the 32-46 peptide findings; cited from earlier work
[19] = test system: rabbits; conditions: cited from earlier work
[20] = test system: normal rats; conditions: cited from earlier work; remark: listed apart in the source

insulin
Plasma Glucose at 60 minutes ([1]; 10 mU insulin in 1.0% BSA in saline, 0 μg DP, fasted rats): 8.1 ± 0.2 mmol/L
effect on glycemia ([1]; low dose of insulin in BSA alone (10 mU, 0 DP)): without effect on glycemia
hepatic glucose output [2]: only reduced hepatic glucose output
effect on plasma glucose ([3]; higher doses of insulin (20, 40 mU)): corresponding decreases in plasma glucose
Plasma Glucose at 60 minutes ([3]; insulin 7 mU per rat, 1.0% BSA in saline, no DP): 8.0 ± 0.3 mmol/L
change in glycemia compared with the control group ([3]; insulin 7.0 mU/rat, whether or not deletion peptide was concurrently administered): no change in glycemia
Plasma Glucose at 60 minutes ([3]; insulin 10 mU per rat, 1.0% BSA in saline, no DP): 8.1 ± 0.2 mmol/L
Plasma Glucose at 60 minutes ([3]; insulin 20 mU per rat, 1.0% BSA in saline, no DP): 7.0 ± 0.1 mmol/L
Plasma Glucose at 60 minutes ([3]; insulin 40 mU per rat, 1.0% BSA in saline, no DP): 5.2 ± 0.3 mmol/L
effect on plasma glucose concentration ([3]; insulin alone, 10 mU): without effect on plasma glucose concentration
Plasma Glucose at 60 min ([4]; glucose administered orally): 144 ± 12 mg/dL
Plasma Glucose at 60 min ([4]; i.p. glucose): 121 ± 28 mg/dL
Plasma Glucose ([5]; +5 min., oral glucose + i.m. insulin 0.5 ml/kg of 20 mU/ml): 79 ± 9 mg/dL
Plasma Glucose ([5]; +15 min., oral glucose + i.m. insulin): 72 ± 10 mg/dL
Plasma Glucose ([5]; +30 min., oral glucose + i.m. insulin): 85 ± 11 mg/dL
Plasma Glucose ([5]; +45 min., oral glucose + i.m. insulin): 88 ± 13 mg/dL
Plasma Glucose ([5]; +60 min., oral glucose + i.m. insulin): 109 ± 14 mg/dL
Plasma Glucose ([5]; +120 min., oral glucose + i.m. insulin): 108 ± 14 mg/dL
Plasma Glucose ([5]; -5 min. (before administration), oral glucose + i.m. insulin group): 71 ± 3 mg/dL
Plasma Glucose at 60 min ([6]; Mouse db/db): 198 ± 31 mg/dL
Plasma Glucose at 60 min ([6]; Mouse db/m (normal)): 102 ± 10 mg/dL
Plasma Glucose at 60 min ([6]; Mouse ob/+ (normal)): 99.5 ± 6 mg/dL
Plasma Glucose at 60 min ([6]; Mouse ob/ob): 167 ± 26 mg/dL

peptide duplicating residues 176 through 191: peptide duplicating hGH residues 176 through 191 (FLRIVQCRSVEGSCGF; UniProt P01241 202-217, looked up, fragment)
glycemic effect ([7]; hGH carboxy terminal fragment): hyperglycemic effect

hGH positions 1 through 15: fragment duplicating the sequence of amino acid residues at hGH positions 1 through 15 (FPTIPLSRLFDNAML; UniProt P01241 27-41, looked up, fragment)
effect on glucose uptake ([7]; hGH amino terminal fragment): insulin potentiating effect on glucose uptake

human growth hormone [hGH]
blood levels of glucose [8]: initially raise and then lower blood levels of glucose
free fatty acids [8]: lower free fatty acids within one hour of administration, followed by later increasing circulating fatty acids

EEAYIPKEQKYSFLQ [DP, NH2 -Glu-Glu-Ala-Tyr-Ile-Pro-Lys-Glu-Gln-Lys-Tyr-Ser-Phe-Leu-Gln-COOH]
Plasma Glucose at 60 minutes ([1]; DP 25 μg per rat with 10 mU insulin in 1.0% BSA in saline): 7.5 ± 0.1 mmol/L
Plasma Glucose at 60 minutes ([1]; DP 25 μg per rat, 1.0% BSA in saline, no insulin, fasted rats): 8.1 ± 0.2 mmol/L
Plasma Glucose at 60 minutes ([1]; DP 50 μg per rat with 10 mU insulin in 1.0% BSA in saline): 5.7 ± 0.3 mmol/L
Plasma Glucose at 60 minutes ([1]; DP 50 μg per rat, 1.0% BSA in saline, no insulin, fasted rats): 7.7 ± 0.2 mmol/L
Plasma Glucose at 60 minutes ([1]; DP 100 μg per rat with 10 mU insulin in 1.0% BSA in saline): 3.5 ± 0.1 mmol/L
Plasma Glucose at 60 minutes ([1]; DP 100 μg per rat, 1.0% BSA in saline, no insulin, fasted rats): 8.0 ± 0.4 mmol/L
effect on glycemia ([1]; deletion peptide alone, up to 100 μg/rat): without effect on glycemia
hypoglycemic effects ([1]; increasing doses of deletion peptide with 10 mU insulin): progressively greater degrees of hypoglycemic effects
effect on plasma glucose ([1]; lowest dose of deletion peptide given with a low dose of insulin in BSA): small significant decrease in plasma glucose
glucose tolerance [9]: unspecified degree of improvement in glucose tolerance
hepatic glycogen synthesis ([10]; administered alone): small, insulin-like effects in increasing hepatic glycogen synthesis
effects of exogenous insulin ([10]; concurrently administered with exogenous insulin): substantially augmented the effects of exogenous insulin
hypoglycemic effect ([10]; deletion peptide alone, normal rats): no hypoglycemic effect
plasma and hepatic glucose output [11]: minor transient fall
glycemic effects ([11]; over a period of two hours): no glycemic effects
glucose utilization of insulin-stimulated fat cells [12]: in vitro increase in glucose utilization
Plasma Glucose at 60 minutes ([3]; 100 μg DP in 1.0% BSA in saline, 0 mU insulin): 8.1 ± 0.2 mmol/L
Plasma Glucose at 60 minutes ([3]; 100 μg DP with insulin 7 mU per rat): 7.6 ± 0.1 mmol/L
Plasma Glucose at 60 minutes ([3]; 100 μg DP with insulin 10 mU per rat): 3.5 ± 0.1 mmol/L
Plasma Glucose at 60 minutes ([3]; 100 μg DP with insulin 20 mU per rat): 3.1 ± 0.1 mmol/L
Plasma Glucose at 60 minutes ([3]; 100 μg DP with insulin 40 mU per rat): 2.7 ± 0.1 mmol/L
hypoglycemia ([3]; deletion peptide in addition to 10 mU insulin): significant degree of hypoglycemia
potentiation of hypoglycemic effects of insulin ([3]; higher doses of insulin with 100 μg deletion peptide): potentiated
growth stimulating effect [13]: no growth stimulating effect
incorporation of labelled glucose into liver and skeletal muscle tissue [14]: caused an alteration in the incorporation of labelled glucose
biological activities in in vivo systems [15]: preliminary evidence of insulin secretory stimulation effects, effects on levels of free fatty acids, and effects on glucose uptake by hepatic and muscle tissue
late increases in free fatty acids and glycemic effects [16]: did not show either the late increases in free fatty acids nor the glycemic effects
potentiation of insulin effects ([5]; at all post-injection times): potentiated insulin effects
potentiation of the hypoglycemic activity of insulin ([6]; all animals tested in Example 4 (mice and rats)): potentiated the hypoglycemic activity of insulin
insulin-stimulated glucose uptake by isolated adipocytes [17]: no effect on insulin-stimulated glucose uptake

tetradecapeptide: synthetic tetradecapeptide copying hGH residues at positions 31 through 44 (FEEAYIPKEQKYSF; UniProt P01241 57-70, looked up, fragment)
in vitro effects on fat cells [18]: substantially the same in vitro effects on fat cells
in vivo hypoglycemic effect [19]: absence of any in vivo hypoglycemic effect
in vivo hypoglycemic effect [20]: absence of any in vivo hypoglycemic effect

From patent US4558033A, “Potentiation of the effects of insulin by peptides” (Amgen, priority 1983, dated 1985)
